Source: ChEMBL document CHEMBL1131973, “Asymmetric synthesis of novel quaternary alpha-hydroxy-delta-lactam dipeptide surrogates” (Bioorg Med Chem Lett, 1999)

Biological target: Prothrombin (Homo sapiens, UniProt P00734)

N=C(N)N1CCC[C@H](NC(=O)CN2CCC[C@@](N)(Cc3ccccc3)C2=O)C1O (stereo partly drawn)
Ki: 1 nM

CCOC(=O)[C@]1(NS(=O)(=O)Cc2ccccc2)CCCN(CC(=O)N[C@H]2CCCN(C(=N)N)C2O)C1=O (stereo partly drawn)
Ki: 1 nM

N=C(N)N1CCC[C@H](NC(=O)CN2CCC[C@H](NS(=O)(=O)Cc3ccccc3)C2=O)C1O (stereo partly drawn)
Ki: 1 nM
